Results from patent US20160046618A1, “Cyclopropyl Fused Thiazin-2-Amine Compounds as Beta-Secretase Inhibitors and Methods of Use” (AMGEN INC., priority 2014, published 2016).

Key:
[1] = target: human recombinant BACE1 (Homo sapiens (Human), UniProt P56817); assay: In vitro enzymatic BACE1 FRET assay; type: biochemical; conditions: read-out: IC50 IP (μM) BACE1 enzyme
Procedure, shortened: (§1)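 Reactions were initiated by adding 50 nM of a peptide carrying fluorophore and quencher on opposite sides of the cleavage site and ran for one hour. Tris buffer then brought the pH to neutrality, ending the reaction, and fluorescence was measured (488 nm excitation, 590 nm emission).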

[2] = target: human recombinant BACE2 (Homo sapiens (Human), UniProt Q9Y5Z0); assay: In vitro enzymatic BACE2 FRET assay; type: biochemical; conditions: read-out: IC50 IP (μM) BACE2 enzyme
Procedure, shortened: as §1

[3] = tested on: Aβ40 in conditioned medium of cells stably expressing Amyloid Precursor Protein (APP); assay: In vitro BACE-1 cell-based assay (Aβ40 sandwich ELISA); conditions: read-out: IC50 IP (μM) BACE1 cell
Procedure, shortened: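 Aβ40 in supernatants measured by time-resolved fluorescence sandwich ELISA, with pAb40 as capture and biotin-6E10 as detector antibody, each incubated at 4 °C.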

[4] = target: Recombinant Cat D (Homo sapiens (Human), UniProt P07339); assay: In vitro enzymatic Cathepsin D (Cat D) FRET assay; type: biochemical; conditions: read-out: IC50 IP (μM) CatD
Procedure, shortened: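 CHO-expressed enzyme; buffer 0.05 M citrate pH 3.5, 5 mM CHAPS, 10% DMSO final. Start with FRET substrate 20 nM, 1 h incubation, Tris stop (pH to neutral), fluorescence ex 500 nm/em 580 nm.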

Recombinant Cat D, sequence (P07339 65-412): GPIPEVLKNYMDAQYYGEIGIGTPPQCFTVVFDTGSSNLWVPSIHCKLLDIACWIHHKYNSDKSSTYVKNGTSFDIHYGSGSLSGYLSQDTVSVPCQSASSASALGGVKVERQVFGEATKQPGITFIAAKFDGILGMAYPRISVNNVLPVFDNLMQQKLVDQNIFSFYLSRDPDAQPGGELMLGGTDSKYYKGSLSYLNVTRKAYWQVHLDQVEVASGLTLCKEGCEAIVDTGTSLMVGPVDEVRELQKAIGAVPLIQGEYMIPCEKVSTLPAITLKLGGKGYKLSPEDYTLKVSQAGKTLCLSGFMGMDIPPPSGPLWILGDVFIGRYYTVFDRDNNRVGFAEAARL
human recombinant BACE1, sequence (P56817 46-501): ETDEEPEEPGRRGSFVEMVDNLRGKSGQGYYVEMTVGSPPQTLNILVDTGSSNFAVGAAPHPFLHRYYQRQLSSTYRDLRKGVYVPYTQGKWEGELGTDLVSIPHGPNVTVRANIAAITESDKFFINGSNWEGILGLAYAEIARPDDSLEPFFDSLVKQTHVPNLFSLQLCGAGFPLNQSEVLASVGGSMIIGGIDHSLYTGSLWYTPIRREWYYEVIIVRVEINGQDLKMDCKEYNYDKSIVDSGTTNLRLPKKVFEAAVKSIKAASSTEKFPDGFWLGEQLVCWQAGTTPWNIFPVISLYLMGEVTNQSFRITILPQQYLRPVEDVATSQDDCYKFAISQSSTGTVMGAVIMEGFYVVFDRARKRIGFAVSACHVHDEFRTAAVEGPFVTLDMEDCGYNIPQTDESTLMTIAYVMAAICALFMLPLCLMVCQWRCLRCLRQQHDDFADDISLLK
human recombinant BACE2, sequence (Q9Y5Z0 63-518): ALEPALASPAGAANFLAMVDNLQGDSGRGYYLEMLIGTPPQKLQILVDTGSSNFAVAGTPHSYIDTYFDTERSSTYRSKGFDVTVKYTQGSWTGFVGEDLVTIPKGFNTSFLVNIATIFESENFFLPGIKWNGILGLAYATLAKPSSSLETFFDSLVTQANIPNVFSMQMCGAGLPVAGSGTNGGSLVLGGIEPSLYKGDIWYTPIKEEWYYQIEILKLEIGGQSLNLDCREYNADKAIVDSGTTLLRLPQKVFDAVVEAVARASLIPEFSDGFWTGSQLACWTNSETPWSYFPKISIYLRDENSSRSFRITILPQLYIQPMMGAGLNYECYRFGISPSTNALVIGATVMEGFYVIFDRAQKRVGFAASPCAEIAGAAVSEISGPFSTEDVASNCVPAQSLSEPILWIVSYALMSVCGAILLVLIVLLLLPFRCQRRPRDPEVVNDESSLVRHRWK

SMILES | IC50 [1] [µM] | IC50 [2] [µM] | IC50 [3] [µM] | IC50 [4] [µM]
COC[C@]12C[C@H]1[C@@](C)(c1cc(NC(=O)c3cnc(Cl)cn3)cc(F)c1F)N=C(N)S2 [Example 1007] | 0.00702 | 0.00484 | 0.73 | 460
COC[C@H](C)Oc1cnc(C(=O)Nc2cc(F)c(F)c([C@@]3(C)N=C(N)S[C@@]4(C#N)C[C@H]43)c2)cn1 [Example 1010, N-(3-((1S,5S,6S)-3-amino-1-cyano-5-methyl-2-thia-4-azabicyclo[4.1.0]hept-3-en-5-yl)-4,5-difluorophenyl)-5-(((S)-1-methoxypropan-2-yl)oxy)pyrazine-2-carboxamide] | 0.0032 | 0.0669 | 0.0309 | > 400
C[C@]1(c2cc(NC(=O)c3ccc(OCC(F)(F)F)cn3)cc(F)c2F)N=C(N)S[C@@]2(C#N)C[C@H]21 [Example 1012, N-(3-((1S,5S,6S)-3-amino-1-cyano-5-methyl-2-thia-4-azabicyclo[4.1.0]hept-3-en-5-yl)-4,5-difluorophenyl)-5-(2,2,2-trifluoroethoxy)-2-pyridinecarboxamide] | 0.00399 | 0.095 | 0.111 | > 400
COC[C@]12C[C@H]1[C@@](C)(c1cc(NC(=O)c3cnc(OCc4noc(C)n4)cn3)cc(F)c1F)N=C(N)S2 [Example 1013, N-(3-((1S,5S,6S)-3-amino-1-(methoxymethyl)-5-methyl-2-thia-4-azabicyclo[4.1.0]hept-3-en-5-yl)-4,5-difluorophenyl)-5-((5-methyl-1,2,4-oxadiazol-3-yl)methoxy)-2-pyrazinecarboxamide] | 0.00139 | 0.0541 | 0.00144 | 959
COC[C@]12C[C@H]1[C@@](C)(c1cc(NC(=O)c3cnc(OCc4nc(C)no4)cn3)cc(F)c1F)N=C(N)S2 [Example 1014, N-(3-((1S,5S,6S)-3-amino-1-(methoxymethyl)-5-methyl-2-thia-4-azabicyclo[4.1.0]hept-3-en-5-yl)-4,5-difluorophenyl)-5-((3-methyl-1,2,4-oxadiazol-5-yl)methoxy)-2-pyrazinecarboxamide] | 0.000879 | 0.192 | 0.00289 | 2560
Cc1cc(OCC(F)(F)F)cnc1C(=O)Nc1cc(F)c(F)c([C@@]2(C)N=C(N)S[C@@]3(C#N)C[C@H]32)c1 [Example 1015, N-(3-((1S,5S,6S)-3-amino-1-cyano-5-methyl-2-thia-4-azabicyclo[4.1.0]hept-3-en-5-yl)-4,5-difluorophenyl)-3-methyl-5-(2,2,2-trifluoroethoxy)-2-pyridinecarboxamide] | 0.00497 | 0.185 | 0.00686 | > 400
C#CCOc1cnc(C(=O)Nc2cc(F)c(F)c([C@@]3(C)N=C(N)S[C@@]4(C#N)C[C@H]43)c2)c(C)c1 [Example 1016, N-(3-((1S,5S,6S)-3-amino-1-cyano-5-methyl-2-thia-4-azabicyclo[4.1.0]hept-3-en-5-yl)-4,5-difluorophenyl)-3-methyl-5-(2-propyn-1-yloxy)-2-pyridinecarboxamide] | 0.00104 | 0.00764 | 0.0119 | > 400
COC[C@]12C[C@H]1[C@@](C)(c1cc(NC(=O)c3cnc(OCC4CCC4)cn3)cc(F)c1F)N=C(N)S2 [Example 1020, N-(3-((1S,5S,6S)-3-amino-1-(methoxymethyl)-5-methyl-2-thia-4-azabicyclo[4.1.0]hept-3-en-5-yl)-4,5-difluorophenyl)-5-(cyclobutylmethoxy)pyrazine-2-carboxamide] | 0.00118 | 0.0998 | 0.0248 | 783
COC[C@]12C[C@H]1[C@@](C)(c1cc(NC(=O)c3cnc(OCC4COC4)cn3)cc(F)c1F)N=C(N)S2 [Example 1022, N-(3-((1S,5S,6S)-3-amino-1-(methoxymethyl)-5-methyl-2-thia-4-azabicyclo[4.1.0]hept-3-en-5-yl)-4,5-difluorophenyl)-5-(3-oxetanylmethoxy)-2-pyrazinecarboxamide] | 0.00572 | 0.579 | 0.0331 | > 400
COC[C@]12C[C@H]1[C@@](C)(c1cc(NC(=O)c3cnc(OCC(C)OC)cn3)cc(F)c1F)N=C(N)S2 (stereo partly drawn) [Example 1023, N-(3-((1S,5S,6S)-3-amino-1-(methoxymethyl)-5-methyl-2-thia-4-azabicyclo[4.1.0]hept-3-en-5-yl)-4,5-difluorophenyl)-5-(2-methoxypropoxy)pyrazine-2-carboxamide] | 0.00319 | 0.204 | 0.0135 | 1360
COC[C@H](C)Oc1cnc(C(=O)Nc2cc(F)c(F)c([C@@]3(C)N=C(N)S[C@@]4(COC)C[C@H]43)c2)cn1 [Example 1024, N-(3-((1S,5S,6S)-3-amino-1-(methoxymethyl)-5-methyl-2-thia-4-azabicyclo[4.1.0]hept-3-en-5-yl)-4,5-difluorophenyl)-5-((1S)-2-methoxy-1-methylethoxy)-2-pyrazinecarboxamide] | 0.00214 | 0.313 | 0.0222 | 884
COC[C@]12C[C@H]1[C@@](C)(c1cc(NC(=O)c3cnc(OCC(F)F)cn3)cc(F)c1F)N=C(N)S2 [Example 1025, N-(3-((1S,5S,6S)-3-amino-1-(methoxymethyl)-5-methyl-2-thia-4-azabicyclo[4.1.0]hept-3-en-5-yl)-4,5-difluorophenyl)-5-(2,2-difluoroethoxy)-2-pyrazinecarboxamide] | 0.00169 | 0.13 | 0.0142 | 1700

Second part, the molecule after the results:

IC50 [1] [µM] | IC50 [2] [µM] | IC50 [3] [µM] | IC50 [4] [µM] | SMILES
0.000885 | 0.0213 | 0.000575 | 7.08 | C#CCOc1cnc(C(=O)Nc2ccc(F)c([C@@]3(C)N=C(N)S[C@@]4(C(=O)NC(C)(C)CF)C[C@H]43)c2)cn1 [Example 1006, (1S,5S,6S)-3-amino-N-(1-fluoro-2-methylpropan-2-yl)-5-(2-fluoro-5-(5-(prop-2-yn-1-yloxy)pyrazine-2-carboxamido)phenyl)-5-methyl-2-thia-4-azabicyclo[4.1.0]hept-3-ene-1-carboxamide]
0.00471 | 0.195 | 0.0022 | > 400 | COC[C@]12C[C@H]1[C@@](C)(c1cc(NC(=O)c3cnc(OCc4nc(C)no4)cn3)ccc1F)N=C(N)S2 [Example 1008, N-(3-((1S,5S,6S)-3-amino-1-(methoxymethyl)-5-methyl-2-thia-4-azabicyclo[4.1.0]hept-3-en-5-yl)-4-fluorophenyl)-5-((3-methyl-1,2,4-oxadiazol-5-yl)methoxy)-2-pyrazinecarboxamide]
0.000695 | 0.0436 | 0.00254 | 936 | C#C[C@H](C)Oc1cnc(C(=O)Nc2cc(F)c(F)c([C@@]3(C)N=C(N)S[C@@]4(COC)C[C@H]43)c2)cn1 [Example 1009, N-(3-((1S,5S,6S)-3-amino-1-(methoxymethyl)-5-methyl-2-thia-4-azabicyclo[4.1.0]hept-3-en-5-yl)-4,5-difluorophenyl)-5-(((1S)-1-methyl-2-propyn-1-yl)oxy)-2-pyrazinecarboxamide]
0.000465 | 0.00908 | 0.00353 | 741 | C#C[C@H](C)Oc1cnc(C(=O)Nc2cc(F)c(F)c([C@@]3(C)N=C(N)S[C@@]4(C#N)C[C@H]43)c2)cn1 [Example 1011, N-(3-((1S,5S,6S)-3-amino-1-cyano-5-methyl-2-thia-4-azabicyclo[4.1.0]hept-3-en-5-yl)-4,5-difluorophenyl)-5-(((1S)-1-methyl-2-propyn-1-yl)oxy)-2-pyrazinecarboxamide]
0.000266 | 0.00982 | 0.000106 | 22.5 | C#CCOc1cnc(C(=O)Nc2ccc(F)c([C@@]3(C)N=C(N)S[C@@]4(C(=O)NCC)C[C@H]43)c2)cn1 [Example 1017, (1S,5S,6S)-3-amino-N-ethyl-5-(2-fluoro-5-(5-(prop-2-yn-1-yloxy)pyrazine-2-carboxamido)phenyl)-5-methyl-2-thia-4-azabicyclo[4.1.0]hept-3-ene-1-carboxamide]
0.00116 | 0.00651 | 0.00113 | 211 | CC(C)(CF)NC(=O)[C@]12C[C@H]1[C@@](C)(c1cc(NC(=O)c3ccc(C#N)cn3)ccc1F)N=C(N)S2 [Example 1018, (1S,5S,6S)-3-amino-5-(5-(5-cyanopicolinamido)-2-fluorophenyl)-N-(1-fluoro-2-methylpropan-2-yl)-5-methyl-2-thia-4-azabicyclo[4.1.0]hept-3-ene-1-carboxamide]
0.000937 | 0.073 | 0.00109 | 271 | C#C[C@H](C)Oc1cnc(C(=O)Nc2ccc(F)c([C@@]3(C)N=C(N)S[C@@]4(C(=O)NC(C)(C)CF)C[C@H]43)c2)cn1 [Example 1019, (1S,5S,6S)-3-amino-5-(5-(5-((S)-but-3-yn-2-yloxy)pyrazine-2-carboxamido)-2-fluorophenyl)-N-(1-fluoro-2-methylpropan-2-yl)-5-methyl-2-thia-4-azabicyclo[4.1.0]hept-3-ene-1-carboxamide]
